According to patent US8778964B2, “Hydroxy-substituted imidazo[1,2-a]-pyridinecarboxamides and their use” (Bayer Pharma Aktiengesellschaft, priority 2012, dated 2014):

These compounds were tested on recombinant guanylate cyclase reporter cell line (assay: Action on recombinant guanylate cyclase reporter cell line (MEC)). Conditions: in some cases mean values obtained from individual determinations.
Format: cell-based
Description: B-2. Action on Recombinant Guanylate Cyclase Reporter Cell Line
The cellular action of the compounds according to the invention is determined on a recombinant guanylate cyclase reporter cell line, as described in F. Wunder et al., Anal. Biochem. 339, 104-112 (2005).
Representative values (MEC=minimal effective concentration) for the compounds according to the invention are shown in the following table (in some cases as mean values obtained from individual determinations): […]
With `Cc1cc(OCC2CC(F)(F)C2)c2nc(C)c(C(=O)NC(CCCC(F)(F)F)C(C)(C)O)n2c1` (racemic) [Example 176, rac-8-[(3,3-Difluorocyclobutyl)methoxy]-2,6-dimethyl-N-(7,7,7-trifluoro-2-hydroxy-2-methylheptan-3-yl)imidazo[1,2-a]pyridine-3-carboxamide] the minimal effective concentration was 3 µM. `Cc1nc2c(OCC3CCCCC3)cccn2c1C(=O)N[C@@H]1CCC[C@@H]1O` (relative stereo) [Example 81, 8-(cyclohexylmethoxy)-N-[cis-2-hydroxycyclopentyl]-2-methylimidazo[1,2-a]-pyridine-3-carboxamide] showed a minimal effective concentration of 0.65 µM. With `Cc1nc2c(OCc3c(F)cccc3F)cccn2c1C(=O)NC(CO)CCC(O)C(F)(F)F` (single isomer, unassigned) [Example 138, 8-[(2,6-Difluorobenzyl)oxy]-2-methyl-N-(6,6,6-trifluoro-1,5-dihydroxyhexan-2-yl)imidazo[1,2-a]-pyridine-3-carboxamide] the minimal effective concentration was 0.1 µM. Work on `Cc1nc2c(OCc3c(F)cccc3F)cccn2c1C(=O)NC(C)C(O)C(F)(F)F` (single isomer, unassigned) [Example 143, 8-[(2,6-Difluorobenzyl)oxy]-2-methyl-N-(4,4,4-trifluoro-3-hydroxybutan-2-yl)imidazo[1,2-a]-pyridine-3-carboxamide] yielded a minimal effective concentration of 0.03 µM. `Cc1nc2c(OCc3c(F)cccc3F)cccn2c1C(=O)NC(C)C(O)C(F)(F)F` (single isomer, unassigned) [Example 144, 8-[(2,6-Difluorobenzyl)oxy]-2-methyl-N-(4,4,4-trifluoro-3-hydroxybutan-2-yl)imidazo[1,2-a]-pyridine-3-carboxamide] showed a minimal effective concentration of 0.3 µM. Compound `Cc1nc2c(OCc3c(F)cccc3F)cccn2c1C(=O)NC(C)C(O)C(F)(F)F` (single isomer, unassigned) [Example 145, 8-[(2,6-Difluorobenzyl)oxy]-2-methyl-N-(4,4,4-trifluoro-3-hydroxybutan-2-yl)imidazo[1,2-a]-pyridine-3-carboxamide] has a minimal effective concentration of over 10 µM. For `Cc1nc2c(OCc3c(F)cccc3F)cccn2c1C(=O)NC(C)C(O)C(F)(F)F` (single isomer, unassigned) [Example 146, 8-[(2,6-Difluorobenzyl)oxy]-2-methyl-N-(4,4,4-trifluoro-3-hydroxybutan-2-yl)imidazo[1,2-a]-pyridine-3-carboxamide], the minimal effective concentration was 1.0 µM. Work on `Cc1cc(OCCC(C)C)c2nc(C)c(C(=O)NC(CCCC(F)(F)F)C(C)(C)O)n2c1` (single isomer, unassigned; ent-2) [Example 168, ent-2,6-Dimethyl-8-(3-methylbutoxy)-N-(7,7,7-trifluoro-2-hydroxy-2-methylheptan-3-yl)imidazo-[1,2-a]pyridine-3-carboxamide] yielded a minimal effective concentration of 3 µM. `Cc1nc2c(OCc3c(F)cccc3F)cccn2c1C(=O)NC(CO)c1ccc(F)cc1` (single isomer, unassigned; ent-8) [Example 107, ent-8-[(2,6-Difluorobenzyl)oxy]-N-[1-(4-fluorophenyl)-2-hydroxyethyl]-2-methylimidazo[1,2-a]-pyridine-3-carboxamide] showed a minimal effective concentration of 0.1 µM. With `Cc1nc2c(OCc3c(F)cccc3F)cccn2c1C(=O)NCC(O)C(F)(F)F` (single isomer, unassigned; ent-8) [Example 109, ent-8-[(2,6-Difluorobenzyl)oxy]-2-methyl-N-(3,3,3-trifluoro-2-hydroxypropyl)imidazo[1,2-a]-pyridine-3-carboxamide] the minimal effective concentration was 0.1 µM. In the case of `Cc1nc2c(OCc3c(F)cccc3F)cccn2c1C(=O)NC(CO)CC(F)(F)F` (single isomer, unassigned; ent-8) [Example 121, ent-8-[(2,6-Difluorobenzyl)oxy]-2-methyl-N-(4,4,4-trifluoro-1-hydroxybutan-2-yl)imidazo[1,2-a]-pyridine-3-carboxamide], the minimal effective concentration is reported as 0.03 µM. In the case of `Cc1nc2c(OCc3c(F)cccc3F)cccn2c1C(=O)NC(CO)CCC(F)(F)F` (single isomer, unassigned; ent-8) [Example 122, ent-8-[(2,6-Difluorobenzyl)oxy]-2-methyl-N-(5,5,5-trifluoro-1-hydroxypentan-2-yl)imidazo[1,2-a]-pyridine-3-carboxamide], the minimal effective concentration is reported as 0.03 µM. Compound `Cc1nc2c(OCc3c(F)cccc3F)cccn2c1C(=O)NC(CO)CCCC(F)(F)F` (single isomer, unassigned; ent-8) [Example 123, ent-8-[(2,6-Difluorobenzyl)oxy]-2-methyl-N-(6,6,6-trifluoro-1-hydroxyhexan-2-yl)imidazo[1,2-a]-pyridine-3-carboxamide] has a minimal effective concentration of 0.03 µM. `Cc1nc2c(OCc3c(F)cccc3F)cccn2c1C(=O)NC(CC(F)(F)F)C(C)(C)O` (single isomer, unassigned; ent-8) [Example 154, ent-8-[(2,6-Difluorobenzyl)oxy]-2-methyl-N-(1,1,1-trifluoro-4-hydroxy-4-methylpentan-3-yl)-imidazo[1,2-a]pyridine-3-carboxamide (enantiomer B)] gave a minimal effective concentration of 0.03 µM. `Cc1nc2c(OCc3c(F)cccc3F)cccn2c1C(=O)NC(CCC(F)(F)F)C(C)(C)O` (single isomer, unassigned; ent-8) [Example 155, ent-8-[(2,6-Difluorobenzyl)oxy]-2-methyl-N-(6,6,6-trifluoro-2-hydroxy-2-methylhexan-3-yl)-imidazo[1,2-a]pyridine-3-carboxamide (enantiomer B)] was tested, and the minimal effective concentration was 0.1 µM. In the case of `Cc1nc2c(OCc3c(F)cccc3F)cccn2c1C(=O)NC(CCCC(F)(F)F)C(C)(C)O` (single isomer, unassigned; ent-8) [Example 156, ent-8-[(2,6-Difluorobenzyl)oxy]-2-methyl-N-(7,7,7-trifluoro-2-hydroxy-2-methylheptan-3-yl)-imidazo[1,2-a]pyridine-3-carboxamide (enantiomer B)], the minimal effective concentration is reported as 0.03 µM. Compound `CCOCC(CO)NC(=O)c1c(C)nc2c(OCc3c(F)cccc3F)cccn12` (single isomer, unassigned; ent-8) [Example 161, ent-8-[(2,6-Difluorobenzyl)oxy]-N-(1-ethoxy-3-hydroxypropan-2-yl)-2-methylimidazo[1,2-a]-pyridine-3-carboxamide (enantiomer A)] has a minimal effective concentration of 1 µM. Work on `CCCCC(NC(=O)c1c(C)nc2c(OC(C)c3c(F)cccc3F)cc(C)cn12)C(C)(C)O` (single isomer, unassigned; ent-8) [Example 171, ent-8-[1-(2,6-Difluorophenyl)ethoxy]-N-(2-hydroxy-2-methylheptan-3-yl)-2,6-dimethylimidazo-[1,2-a]pyridine-3-carboxamide] yielded a minimal effective concentration of 1 µM. `CCCC[C@H](CO)NC(=O)c1c(C)nc2c(OCc3c(F)cccc3F)cccn12` [Example 1, 8-[(2,6-Difluorobenzyl)oxy]-N-[(2R)-1-hydroxyhexan-2-yl]-2-methylimidazo[1,2-a]pyridine-3-carboxamide] showed a minimal effective concentration of 0.05 µM. For `CCCC[C@H](CO)NC(=O)c1c(C)nc2c(OCc3c(F)ccc(F)c3F)cccn12` [Example 2, N-[(2R)-1-hydroxyhexan-2-yl]-2-methyl-8-[(2,3,6-trifluorobenzyl)oxy]imidazo[1,2-a]pyridine-3-carboxamide], the minimal effective concentration was 0.03 µM.
